Patent US7858105B2, “Inhibitors of melanocyte tyrosinase as topical skin lighteners” (Mediquest Therapeutics, Inc., priority 2000, dated 2010)
Values after ≈ are worked out from the molar mass of the structure shown. Like-named read-outs stand apart in the source and are kept apart here.

Columns and labels:
[1] = compared with HQ; cited from earlier work
Mel-Ab melanocytes [2] = experiment: mammalian-melanocyte-culture toxicity assay system; format: cell-based, mouse; conditions: read-out: T: concentration of compound that kills 50% of cells in the mammalian-melanocyte-culture toxicity assay system
Description: (§1) In the present invention, one or all of three in vitro bioassays can be utilized to evaluate the efficacy and toxicity of candidate skin-lightening compounds. The three bioassays characterize the compounds with regard to mammalian tyrosinase enzyme inhibition (cell free), pigmentation in melanocyte cultured cells, and cytotoxicity of mammalian cultured cells. Both cell-based pigmentation and cell-free enzymatic assays have been developed using the mammalian melanocyte cell line, Mel-Ab, a C57BL/6 mouse-derived cell line that produces high levels of melanin. A distinct advantage of this approach is that humans share substantial sequence similarities in their genes (DNA) and proteins (such as tyrosinase) with mice, relative to non-mammalian species (e.g., mushrooms). So, mouse Mel-Ab melanocytes can serve as adequate surrogates for human melanocytes for many pharmacologic purposes.
[6] It should be noted that many inhibitors identified in cell-free enzymatic assays might have subsequent difficulties with toxicity or delivery in melanocyte cell-based assays. Therefore, all three in vitro assays in combination provide an excellent characterization of candidate skin lightening compounds.
(§2) A first class of compounds based upon the template compound benzimidazolethiol (lower left structure) were tested for tyrosinase inhibition, cell culture pigment inhibition, and toxicity, by methods described in Curto, E. V., et al. (1999).

Mel-Ab melanocytes [3] = experiment: mammalian-melanocyte-culture pigment assay system; format: cell-based, mouse; conditions: read-out: P: concentration of compound that produces 50% inhibition in the mammalian-melanocyte-culture pigment assay system
Description: as §1
(§3) These adherent murine melanocytes are grown on tissue culture plastic in medium supplemented with fetal bovine serum, 12-O-tetradecanoylphorbol-13-acetate (TPA) to stimulate cell division via down-regulation of protein kinase C, [22, 23] and cholera toxin to stimulate adenylate cyclase activity in the absence of α-MSH. Cellular lysates of Mel-Ab cells may be used as tyrosinase enzyme preparations. Multi-well plate assays have been validated for enzyme inhibition (e.g., DOPA oxidation by colorimetric measurement or radiolabeled substrate incorporation into melanin) and for pigmentation assays on cultured Mel-Ab cells. After 4 days of treatment of cultured cells, melanin content is determined using a spectrophotometer at 400+ nm. This assay can detect an apparent loss in pigmentation resulting from either inhibition of de novo synthesis (e.g. via inhibition of tyrosinase, or the adenylate cyclase pathway, or another pathway) or a cytostatic/cytotoxic mechanism. It is therefore a broad primary screen. It is used in parallel with the tyrosinase enzymatic assay to determine whether an inhibitor of pigmentation at the cellular level is acting primarily at the enzyme level.
as §2

mammalian tyrosinase [4] = biological target: T1, mammalian tyrosinase (Mus musculus, UniProt P11344); experiment: cell-free mammalian-enzyme assay system (tyrosinase inhibition, Mel-Ab cell lysates); format: biochemical; conditions: read-out: E: concentration of compound that produces 50% pigment inhibition in the cell-free mammalian-enzyme assay system
T1 construct: Cellular lysates of Mel-Ab cells may be used as tyrosinase enzyme preparations; endogenous in cells; host or cells: Mel-Ab mouse melanocytes (C57BL/6-derived), cell lysate
T1 sequence (P11344 19-533): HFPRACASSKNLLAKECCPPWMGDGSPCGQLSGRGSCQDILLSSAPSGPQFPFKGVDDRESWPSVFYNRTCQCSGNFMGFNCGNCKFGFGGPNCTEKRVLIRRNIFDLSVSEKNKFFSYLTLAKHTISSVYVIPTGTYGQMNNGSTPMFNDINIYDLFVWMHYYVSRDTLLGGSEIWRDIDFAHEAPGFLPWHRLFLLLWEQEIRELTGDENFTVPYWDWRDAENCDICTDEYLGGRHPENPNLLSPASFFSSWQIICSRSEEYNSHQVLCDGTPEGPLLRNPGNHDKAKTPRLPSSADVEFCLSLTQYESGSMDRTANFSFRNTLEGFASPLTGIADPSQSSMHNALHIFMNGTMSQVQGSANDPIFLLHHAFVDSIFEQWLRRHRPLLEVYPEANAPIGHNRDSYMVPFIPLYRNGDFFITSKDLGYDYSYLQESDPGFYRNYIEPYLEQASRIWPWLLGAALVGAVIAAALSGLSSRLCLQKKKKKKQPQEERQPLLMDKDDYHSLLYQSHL
Description: as §1, §3
A distinct advantage of the screening systems (developed by the inventors of the present invention) is the focus on mammalian tyrosinase, as opposed to non-mammalian enzymes often used by other investigators, such as mushroom tyrosinase. Since the biochemical and pharmacologic characteristics of an enzyme or isozyme can vary dramatically between species of organisms (e.g., due to dissimilarities in primary, secondary, and tertiary structure), it is highly preferable that candidate topical skin lighteners intended for human use be discovered based on their biochemical action against a mammalian source of the enzyme. Mushroom tyrosinase (and in some instances plant polyphenol oxidases) has been used in the vast majority of prior inhibitor studies. […] Thus, the methods reported by the inventors of the present invention for screening against mammalian tyrosinase or within melanocytes is highly preferred over other possible screening strategies.
The substrate kinetic “affinity” of mammalian tyrosinase for L-tyrosine is approximately KM=600 μM. A potentially effective candidate skin lightening agent is considered to be desirable, active, and/or functional if it renders 50% inhibition of mammalian tyrosinase enzyme activity, at concentrations below half the enzyme's “affinity” for tyrosine in cell-free enzyme extracts (IC50≦300 μM) and pigment production in melanocyte cell cultures (IC50≦300 μM).
as §2

[5] = UV absorbance: extinction coefficient at wavelength of maximum absorbency; format: physicochemical; conditions: for compound extinction coefficient ε: at λmax
[6] = system: Chinese hamster V79 cells; conditions: cited from earlier work
Mel-Ab melanocytes [7] = conditions: cited from earlier work
mammalian tyrosinase [8] = biological target: T1, mammalian tyrosinase; conditions: cited from earlier work
Salmonella = conditions: cited from earlier work
Mel-Ab melanocytes [9] = conditions: cited from earlier work; remark: listed apart in the source

| Structure (SMILES) | IC50 (Mel-Ab melanocytes [2]; Mus musculus, Mel-Ab) [µM] | IC50 (Mel-Ab melanocytes [3]; Mus musculus, Mel-Ab) [µM] | IC50 (mammalian tyrosinase [4]) [µM] | wavelength of maximum absorbency λmax [5] [nm] | compound extinction coefficient ε [5] [OD/M × cm] | further results |
| --- | --- | --- | --- | --- | --- | --- |
| O=C(O)c1cc(O)ccc1O [GA, 2,5-dihydroxybenzoic acid] |  |  |  |  |  | mutagenic activity [1]: lacking the mutagenic activity |
| COc1ccc(N)cc1OC [ID # 006] | > 1000 | 182 | 110 |  |  |  |
| Oc1ccc2c(c1)OCO2 [ID # 009] | 775 | 209 | 98 |  |  |  |
| Oc1ccc2[nH]ccc2c1 [ID # 026] | 367 | 153 | 54 |  |  |  |
| NC(=S)Nc1ccccc1 [ID # 033] | > 1000 | 12 | 2 |  |  |  |
| Sc1nc2ccccc2s1 [ID # 040] |  |  | 8 |  |  |  |
| CC(=S)Nc1ccccc1 [ID # 054] | > 1000 | 16 | 16 |  |  |  |
| NCCc1cccs1 [ID # 073] | > 1000 | 100 | > 1000 |  |  |  |
| Nc1ccc2c(c1)CCC2 [ID # 079] | 472 | 71 | 73 |  |  |  |
| COc1ccc(CS)cc1 [ID # 082] | 500 | 81 | 5 | 275 | 1000 |  |
| CC(=O)Nc1ccc(S)cc1 [ID # 083] | 542 | 82 | 19 | 265 | 4700 |  |
| COc1cccc2[nH]c(S)nc12 [ID # 084] |  |  | 0.07 | 310 | 10000 | IC50 (Mel-Ab melanocytes [2]): > 1000 µM; IC50 (Mel-Ab melanocytes [3]): 1.6 µM |
| CCOc1ccc2nc(S)sc2c1 [ID # 091] |  |  | > 1000 |  |  | IC50 (Mel-Ab melanocytes [2]): > 1000 µM; IC50 (Mel-Ab melanocytes [3]): > 1000 µM |
| COC(=O)c1cccc(N)c1 [ID # 092] | > 1000 | 236 | 79 |  |  |  |
| COc1ccc(OC)c(S)c1 [ID # 093] |  |  | 500 | 305 | 2700 | IC50 (Mel-Ab melanocytes [2]): 200 µM; IC50 (Mel-Ab melanocytes [3]): 200 µM |
| [Se]=c1[nH]c2ccccc2[nH]1 [ID # 098] |  |  | 0.8 |  |  | IC50 (Mel-Ab melanocytes [2]): 132 µM; IC50 (Mel-Ab melanocytes [3]): 14 µM |
| COc1cccc(S)c1 [ID # 099] | 202 | 85 | 53 | 265 | 3000 |  |
| COc1ccc(C(N)=S)cc1 [ID # 100] | > 1000 | 62 | 32 |  |  |  |
| CSc1ccc(S)cc1 [ID # 102] | 126 | 115 | 0.24 | 280 | 2300 |  |
| COc1ccc(S)cc1OC [ID # 103] | > 1000 | 8 | 8 | 250 | 4300 |  |
| S=c1[nH]c2cccnc2[nH]1 [ID # 135] |  |  | 4 |  |  | IC50 (Mel-Ab melanocytes [2]): > 1000 µM; IC50 (Mel-Ab melanocytes [3]): 256 µM |
| Sc1nc2ccccc2[nH]1 [ID # 138] |  |  | 0.25 | 300 | 14300 |  |
| Cc1cccc2[nH]c(S)nc12 [ID # 140] |  |  | 0.12 | 305 | 6300 | IC50 (Mel-Ab melanocytes [2]): > 1000 µM; IC50 (Mel-Ab melanocytes [3]): 2.4 µM |
| CC(=O)Nc1ccc(SC(C)=O)cc1 [ID # 148] |  |  | 500 | 255 | 3300 | IC50 (Mel-Ab melanocytes [2]): 125 µM; IC50 (Mel-Ab melanocytes [3]): 30 µM |
| CC(=O)n1c(=S)[nH]c2ccccc21 [ID # 205] | 35 | 8.3 | 0.5 |  |  |  |
| Oc1ccc(O)cc1 [hydroquinone] |  |  |  |  |  | mutagenicity in mammalian Chinese hamster V79 cells [6]: mutagenic; cytotoxicity to cultured mammalian melanocytes (in words) (Mel-Ab melanocytes [7]): potent cytotoxicity; cytotoxicity to cultured mammalian melanocytes (in words) (Mel-Ab melanocytes [7]; listed as HQ): cytotoxic; inhibition of the mammalian tyrosinase enzyme (in words) (mammalian tyrosinase [8]): minimal enzymatic inhibition; inhibition of the mammalian tyrosinase enzyme (in words) (mammalian tyrosinase [8]; listed as HQ): not an effective inhibitor; mutagenicity in Salmonella (Salmonella): mutagenic; IC50 on Mel-Ab culture (Mel-Ab melanocytes [9]; positive control, owing to cytotoxicity, not inhibition of pigmentation per se): low micrograms per milliliter range |
| COC(=O)c1cc(O)ccc1O [methyl gentisate] |  |  |  |  |  | mutagenic activity [1]: lacking the mutagenic activity; melanocyte cytotoxicity IC50 (Mel-Ab melanocytes [7]; Curto et al. (1999)): 118.7 ± 12 µg/mL; IC50 against tyrosinase activity in cell-free assays (mammalian tyrosinase [8]; Curto et al. (1999)): 11.2 ± 4 µg/mL (≈ 66.6 µM); IC50 in melanocyte cell cultures (Mel-Ab melanocytes [9]; Curto et al. (1999)): 30.9 ± 5 µg/mL (≈ 184 µM); inhibition of melanin accumulation (in words) (Mel-Ab melanocytes [9]; murine melanocyte cell culture primary screen): moderately potent inhibitor |
